How the values were obtained:
[1] = tested on: NADPH oxidase; assay: Inhibitory activity on ROS production derived from NADPH oxidase (HUVECs, nitrotetrazolium blue); format: cell-based, Human; conditions: 1.0 μM test compound, 25 mM glucose, 200 μM NADPH, 2 hours
Protocol: Test 1: Inhibitory Activity on ROS Production Derived from NADPH Oxidase
This activity was measured by using Human Umbilical Vein Endothelial Cells (HUVECs). The test method is as follows.
3×10^4 cells/well (100 μL) of HUVECs were seeded into a 96-well plate coated with collagen. The culture medium was MCDB131 medium containing 10% fetal bovine serum, 2 mM glutamine, 100 U/mL penicillin, 100 U/mL streptomycin, and 10 ng/mL recombinant human basic-FGF. On the next day, the culture medium was removed by an aspirator, and 100 μL/well of phosphate buffered saline containing 25 mM glucose, 200 μM NADPH, 0.2% nitrotetrazolium blue, and test compounds followed by culturing at 37° C. Nitrotetrazolium blue reacts with intracellularly produced ROS and turns into a water-insoluble blue pigment. After 2 hours, the supernatant was discarded, and the wells were washed three times with phosphate buffered physiological saline. Then, 100 μL/well of 90% DMSO water containing 0.04M sodium hydroxide was added to each well to completely dissolve the pigment, and an absorbance at a wavelength of 715 nm was measured. By taking an absorbance with no addition of a test compound as A, an absorbance […], and an absorbance with addition of glucose, NADPH and a test compound as C, ROS production inhibitory rate was calculated according to the following equation. Inhibition rate (%)=[…]
Abbreviation “Ex” in the table represents Example Compound No. which will follow, and abbreviation “Inh” represents an ROS production inhibition rate. It was confirmed that the compounds of the formula (I) of the present invention have an excellent ROS production inhibitory activity.

[2] = Oral glucose tolerance test using mice; format: in vivo; conditions: Mus musculus, 0.5 h, 3 mg/kg orally 5 minutes prior to oral glucose loading (2 g/kg), 30 minutes after glucose loading, relative to control group, male ICR or C57BL/6 J mice, read-out: blood glucose-lowering rate
Text: Test 2: Oral Glucose Tolerance Test Using Mice
This test is intended to evaluate an inhibitory action of a test compound on elevation of the blood glucose level after glucose loading, using mice. A test method is described hereinafter.
Male ICR or C57BL/6 J mice (6 weeks old, available from CLEA JAPAN, Inc.) pre-bred for one week were fasted overnight and used as test animals. A test compound was suspended in 10% PEG-60 Hydrogenated Castor Oil (HCO-60) aqueous solution, and was orally administered (3 mg/kg) to animals 5 minutes prior to oral glucose loading (2 g/kg). The control group was given a 10% HCO-60 aqueous solution. According to the following equation, a blood glucose-lowering rate (%) at 30 minutes after glucose loading was calculated for the test compound-treated group relative to the control group. An increase in the blood glucose level of the test compound-treated group and an increase in the blood glucose level of the control group were taken as A and B, respectively. Blood glucose-lowering rate (%)=100−[(A/B)×100]

Row | melting point | Compound | Inh(%) ROS production inhibition rate [1] [%] | inhibition in vivo at 3 mg/kg [2] [%]
1 | 268 to 271 °C | CCOC(=O)N[C@H]1CC[C@H](OCc2[nH]c3ccccc3c(=O)c2C)CC1 [Example 5, ethyl {trans-4-[(3-methyl-4-oxo-1,4-dihydroquinolin-2-yl]methoxy]cyclohexyl}carbamate] |  | 
2 | > 310 °C (dec.) | CCCCCCCS(=O)(=O)Cc1[nH]c2ccccc2c(=O)c1C [Example 19, 2-[(heptylsulfonyl)methyl]-3-methylquinolin-4(1H)-one] | 99.1 ± 0.0 | 
3 | 200 to 202 °C | Cc1c(COc2cccc(OCC3CCOCC3)c2)[nH]c2ccccc2c1=O [Example 2, 3-methyl-2-{[3-(tetrahydro-2H-pyran-4-ylmethoxy)phenoxy]methyl}quinolin-4(1H)-one] | 91.9 ± 5.2 | 
4 | 200 to 202 °C | Cc1c(COc2ccc(CCC3(O)CCCC3)cc2)[nH]c2ccccc2c1=O [Example 3, 2-({4-[2-(1-hydroxycyclopentyl)ethyl]phenoxy}methyl)-3-methylquinolin-4(1H)-one] |  | 
5 | 245 to 247 °C | CCS(=O)(=O)N[C@H]1CC[C@H](OCc2[nH]c3ccccc3c(=O)c2C)CC1 [Example 6, N-{trans-4-[(3-methyl-4-oxo-1,4-dihydroquinolin-2-yl)methoxy]cyclohexyl}ethanesulfonamide] | 79.9 ± 1.2 | 
6 | 225 to 228 °C | CCS(=O)(=O)N1CCC(CCc2[nH]c3ccccc3c(=O)c2C)CC1 [Ex 279] | 98.9 ± 1.0 | 
7 | > 270 °C (dec.) | CCNC(=O)N[C@H]1CC[C@H](OCc2[nH]c3ccccc3c(=O)c2C)CC1 [Ex 224] |  | 
8 | 216 to 217 °C | Cc1c(CO[C@H]2CC[C@H](N3CCCC3=O)CC2)[nH]c2ccccc2c1=O [Example 7, 3-methyl-2-({[trans-4-(2-oxopyrrolidin-1-yl)cyclohexyl]oxy}methyl)quinolin-4(1H)-one] |  | 
9 | 221 to 223 °C | Cc1c(COc2cccc(N3CCOCC3=O)c2)[nH]c2ccccc2c1=O [Example 9, 3-methyl-2-{[3-(3-oxomorpholin-4-yl)phenoxy]methyl}quinolin-4(1H)-one] | 88.7 ± 1.5 | 
10 | 137 to 138 °C | Cc1c(COc2cc(OCCC3CCOCC3)ccn2)[nH]c2ccccc2c1=O [Example 8, 3-methyl-2-[({4-[2-(tetrahydro-2H-pyran-4-yl)ethoxy]pyridin-2-yl}oxy)methyl]quinolin-4(1H)-one] | 91.5 ± 4.7 | 70 to 105
11 | 240 to 243 °C | Cc1cccc(CNC(=O)OCc2[nH]c3ccccc3c(=O)c2C)c1 [Ex 283] | 61.6 ± 1.7 | 
12 | 203 to 205 °C | Cc1c(CCC2CCN(C(=O)CC(C)(C)O)CC2)[nH]c2ccccc2c1=O [Ex 271] |  | 
13 | 211 to 213 °C | CCOC(=O)N1CCC(CCc2[nH]c3ccccc3c(=O)c2C)CC1 [Ex 276] | 118.2 ± 4.0 | 
14 | > 231 °C (dec.) | Cc1c(COc2ncc(C(=O)NC3CCCC3)cn2)[nH]c2ccccc2c1=O [Ex 230] |  | 
15 | 135 to 138 °C | Cc1c(COc2ccc3c(c2)CCN(C(=O)CC(C)(C)O)C3)[nH]c2ccccc2c1=O [Ex 213] |  | 

The remaining lines, values behind:

Row | Compound | melting point | Inh(%) ROS production inhibition rate [1] [%] | inhibition in vivo at 3 mg/kg [2] [%]
16 | Cc1c(COC(=O)NCC2CCCCC2)[nH]c2ccccc2c1=O [Ex 291] |  | 118.8 ± 0.4 | 
17 | Cc1c(CN2CCc3cc(OCC4CCOCC4)ccc3C2)[nH]c2ccccc2c1=O [Ex 180] |  | 69.5 ± 1.3 | 
18 | Cc1c(COc2cccc(N3CCC(C)(O)CC3)c2)[nH]c2ccccc2c1=O [Ex 199] |  | 93.1 ± 1.1 | 
19 | Cc1c(COCCC2(O)CCCCC2)[nH]c2ccccc2c1=O [Ex 205] | 125 to 127 °C |  | 
20 | Cc1c(COc2ccc3c(c2)N(C(=O)CC2CCOCC2)CCC3)[nH]c2ccc(F)cc2c1=O [Ex 166] |  | 84.3 ± 2.4 | 
21 | Cc1c(COc2cc(OCCC3(O)CCOCC3)ccn2)[nH]c2ccccc2c1=O [Ex 179] | 189 to 190 °C |  | 
22 | Cc1c(CCCCCOc2ccc(F)cc2F)[nH]c2ccc(F)cc2c1=O [Ex 28] | 201 to 203 °C |  | 
23 | Cc1c(COc2cc(OCCC(C)(C)O)cc(N3CCOCC3)c2)[nH]c2ccccc2c1=O [Example 10, 2-{[3-(3-hydroxy-3-methylbutoxy)-5-morpholin-4-ylphenoxy]methyl}-3-methylquinolin-4(1H)-one] | 189 to 190 °C |  | 
24 | COC(C)(C)CCOc1ccnc(OCc2[nH]c3ccccc3c(=O)c2C)c1 [Ex 186] |  |  | 70 to 105
25 | Cc1c(COCCCCOc2ccc(C#N)cc2)[nH]c2ccccc2c1=O [Ex 49] |  | 90.8 ± 5.2 | 
26 | COC(C)(C)CCOCCCCOCc1[nH]c2ccccc2c(=O)c1C [Ex 55] |  | 57.3 ± 2.3 | 
27 | Cc1c(COc2cccc(OCCC(C)(C)O)c2)[nH]c2ccccc2c1=O [Ex 141] |  |  | 70 to 105
28 | Cc1c(COC(=O)Nc2cccc(Cc3ccccc3)c2)[nH]c2ccccc2c1=O [Ex 285] |  | 67.3 ± 0.1 | 
29 | Cc1c(COc2cccc(N3CCC(OCCC(C)(C)O)CC3)c2)[nH]c2ccccc2c1=O [Ex 194] | 160 to 163 °C |  | 
30 | Cc1c(COC(=O)NCCCc2ccccc2)[nH]c2ccccc2c1=O [Ex 284] |  | 64.2 ± 0.1 | 70 to 105
31 | CCCCCC(=O)N1CCN(Cc2[nH]c3ccccc3c(=O)c2C)CC1 [Ex 181] | 171 to 173 °C |  | 

Row | Compound | melting point | Inh(%) ROS production inhibition rate [1] [%] | inhibition in vivo at 3 mg/kg [2] [%]
32 | Cc1c(CCC2CCN(C(=O)C3CC3)CC2)[nH]c2ccccc2c1=O [Ex 209] | 222 to 224 °C |  | 
33 | Cc1c(COc2cccc(OCC3CCOCC3)n2)[nH]c2ccccc2c1=O [Ex 143] | 221 to 223 °C |  | 
34 | CC(=O)N1CCC(COc2cccc(OCc3[nH]c4ccccc4c(=O)c3C)c2)CC1 [Ex 98] |  | 101.5 ± 1.9 | 
35 | Cc1c(COc2cc(OCCC(C)(C)O)ccn2)[nH]c2ccccc2c1=O [Example 4, 2-({[4-(3-hydroxy-3-methylbutoxy)pyridin-2-yl]oxy}methyl)-3-methylquinolin-4(1H)-one] | 127 to 130 °C | 84.7 ± 2.1 | 70 to 105
36 | Cc1c(COc2cc(OCC3CCOCC3)ccn2)[nH]c2ccc(F)cc2c1=O [Ex 153] |  |  | 70 to 105
37 | Cc1c(COCCCCOc2cccc3c2OC(C)(C)C3)[nH]c2ccccc2c1=O [Ex 52] | 139 to 140 °C |  | 
38 | COCCc1ccc(OCCCCOCc2[nH]c3ccccc3c(=O)c2C)cc1 [Ex 50] |  | 80.5 ± 2.5 | 
39 | Cc1c(COCCCCOCCC2CC2)[nH]c2ccccc2c1=O [Ex 53] | 155 to 157 °C |  | 
40 | Cc1c(CCc2cc(OCC3CCOCC3)ccn2)[nH]c2ccccc2c1=O [Ex 184] | 212 to 215 °C |  | 
41 | Cc1c(COCC(C)(C)COC(=O)N2CCOCC2)[nH]c2ccccc2c1=O [Ex 204] | 155 to 157 °C |  | 
42 | Cc1c(COc2cccc(N3CCC(O)CC3)c2)[nH]c2ccccc2c1=O [Ex 198] |  | 97.5 ± 6.1 | 
43 | Cc1c(COC2CCOCC2)[nH]c2ccccc2c1=O [Ex 212] | 194 to 196 °C |  | 
44 | CCCCCC(=O)N1CCC(OCc2[nH]c3ccc(F)cc3c(=O)c2C)CC1 [Ex 128] |  | 77.7 ± 3.9 | 
45 | Cc1c(CO[C@H]2CC[C@H](NC(=O)CC(C)(C)O)CC2)[nH]c2ccccc2c1=O [Ex 248] |  |  | 89
46 | Cc1c(COCCN(C(=O)C2CCOCC2)C2CCCCC2)[nH]c2ccccc2c1=O [Ex 228] |  | 66.3 ± 2.1 | 
47 | Cc1c(COc2cccc(OCCc3ccncc3)c2)[nH]c2ccccc2c1=O [Ex 127] |  | 85.3 ± 2.9 | 
